Each block holds one compound with its values, some of them ahead of it.
Legend:
LRP6 = test: Western blot of endogenous LRP6 in HEK293T cells overexpressing AAK1; format: cell-based, human; settings: FLAG-AAK1 overexpression, 100 nm, 6 hr
AAK1 [1] = target: T1, AAK1 (Homo sapiens, UniProt Q2M2I8); test: biochemical; format: binding
Target sequence in this assay (Q2M2I8 31-396): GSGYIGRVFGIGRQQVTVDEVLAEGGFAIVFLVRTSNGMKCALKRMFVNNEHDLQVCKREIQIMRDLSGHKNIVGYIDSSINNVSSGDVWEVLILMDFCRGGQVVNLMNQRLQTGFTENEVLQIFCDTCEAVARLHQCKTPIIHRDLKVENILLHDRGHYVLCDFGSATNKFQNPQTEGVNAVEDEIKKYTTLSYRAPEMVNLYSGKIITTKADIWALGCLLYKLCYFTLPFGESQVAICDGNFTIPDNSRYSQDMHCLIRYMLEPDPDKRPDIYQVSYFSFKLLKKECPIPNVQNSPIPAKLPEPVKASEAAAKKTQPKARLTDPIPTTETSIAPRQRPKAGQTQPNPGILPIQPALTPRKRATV

PIP5K1C = PIP5K1C (Homo sapiens, UniProt O60331); test: PIP5K1C enzyme assay, ADP-Glo format; format: biochemical
AAK1 [2] = target: T1, AAK1; test: biochemical; settings: IC50 for inhibition of AAK1 enzymatic activity, 46 μM ATP (at Km)
Target sequence in this assay (Q2M2I8 27-365): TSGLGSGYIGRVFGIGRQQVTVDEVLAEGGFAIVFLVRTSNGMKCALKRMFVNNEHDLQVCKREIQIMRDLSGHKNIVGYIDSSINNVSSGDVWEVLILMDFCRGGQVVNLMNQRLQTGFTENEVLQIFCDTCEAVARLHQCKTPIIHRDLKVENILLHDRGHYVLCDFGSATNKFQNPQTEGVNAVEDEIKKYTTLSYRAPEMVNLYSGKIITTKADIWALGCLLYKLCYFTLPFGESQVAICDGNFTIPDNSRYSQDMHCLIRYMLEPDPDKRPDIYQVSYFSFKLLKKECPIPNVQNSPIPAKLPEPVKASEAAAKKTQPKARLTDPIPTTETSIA

phospho-AP2M1 (T156) = test: Western blot of phospho-AP2M1; format: cell-based, human; settings: HT1080 cells, 1 μM, without WNT3A
[3] = system: β-catenin-activated Firefly luciferase reporter (BAR); test: BAR luciferase reporter assay in HT1080-B/R stable cells; format: cell-based, human; settings: AAK1 siRNA 56 hr, then treatment 16 hr
phospho-AP2M1 (Thr156) = test: Western blot of phospho-AP2M1; format: cell-based, human; settings: HEK293T cells, 2 hr, concentration-dependent
LRP6 surface levels = test: LRP6 surface staining by flow cytometry in HEK293T cells; format: cell-based, human; settings: co-treatment with WNT3A, 8 hr

PIP5K1C, sequence (O60331 whole entry): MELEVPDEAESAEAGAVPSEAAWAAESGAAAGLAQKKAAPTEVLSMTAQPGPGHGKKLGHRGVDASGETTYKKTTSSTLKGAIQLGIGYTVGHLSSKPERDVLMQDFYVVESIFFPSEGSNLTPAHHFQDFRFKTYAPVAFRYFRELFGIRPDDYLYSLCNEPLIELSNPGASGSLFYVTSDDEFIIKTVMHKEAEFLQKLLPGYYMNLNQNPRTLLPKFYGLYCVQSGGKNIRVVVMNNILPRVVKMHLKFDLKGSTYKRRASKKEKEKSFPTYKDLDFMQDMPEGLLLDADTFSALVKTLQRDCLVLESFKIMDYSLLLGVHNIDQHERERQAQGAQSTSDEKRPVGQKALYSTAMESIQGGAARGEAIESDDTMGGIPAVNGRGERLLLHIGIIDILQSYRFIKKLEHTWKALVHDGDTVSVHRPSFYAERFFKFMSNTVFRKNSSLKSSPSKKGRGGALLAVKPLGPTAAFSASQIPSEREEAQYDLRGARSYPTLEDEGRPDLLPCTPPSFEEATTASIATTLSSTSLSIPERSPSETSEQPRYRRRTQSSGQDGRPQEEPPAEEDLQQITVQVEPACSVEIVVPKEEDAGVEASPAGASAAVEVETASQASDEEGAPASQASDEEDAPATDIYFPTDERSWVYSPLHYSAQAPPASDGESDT

SMILES: CO/C1=C\C(C)=C\[C@@H](C)[C@@H](O)[C@@H](C)C/C(C)=C/C=C/[C@H](OC)[C@@H]([C@@H](C)[C@@H](O)[C@H](C)[C@@]2(O)C[C@@H](O)[C@H](C)[C@@H](C(C)C)O2)OC1=O [bafilomycin A1]
- AAK1-driven downregulation of LRP6 (LRP6): rescued AAK1-driven downregulation of LRP6

- Ki (AAK1 [1]): 2000 nM
- IC50 (PIP5K1C): 3600 nM
- IC50 (AAK1 [2]): > 1000 nM
SMILES: CC(C)C(=O)Nc1n[nH]c2cc(-c3cccc(NS(=O)(=O)C4CC4)c3)ccc12 [34A, N-(6-(3-(cyclopropanesulfonamido)phenyl)-1H-indazol-3-yl)isobutyramide]

SMILES: Cc1c[nH]c(-c2cnc(NCCNc3ccc(C#N)cn3)nc2-c2ccc(Cl)cc2Cl)n1 [CHIR99021]
- pAP2M1 levels (phospho-AP2M1 (T156)): did not result in elevated pAP2M1 levels

SMILES: CN(C)CCCN1c2ccccc2Sc2ccc(Cl)cc21 [chlorpromazine]
- WNT signaling (BAR) induced by AAK1 silencing [3]: suppressed WNT signaling induced by AAK1 silencing

SMILES: CCN(CC)S(=O)(=O)Nc1cccc(-c2ccc3c(NC(=O)C4CC4)n[nH]c3c2)c1 [SGC-AAK1-1, N-(6-(3-((N,N-diethylsulfamoyl)amino)phenyl)-1H-indazol-3-yl)cyclopropanecarboxamide]
- phosphorylation of the AP2M1 subunit at Thr156 (phospho-AP2M1 (Thr156)): inhibited the phosphorylation of the AP2M1 subunit at Thr156
- rescue of the WNT3A-induced decrease of LRP6 surface levels (LRP6 surface levels): rescued

— paper PMC6315376 (Cell Reports, 2019)
